The text below walks through data of patent US9745310B2 (SK BIOPHARMACEUTICALS CO., LTD., priority 2015, dated 2017).

What is called EC50 is the midpoint of the concentration-response curve.

human mGluR5 receptor, sequence (P41594 21-1212): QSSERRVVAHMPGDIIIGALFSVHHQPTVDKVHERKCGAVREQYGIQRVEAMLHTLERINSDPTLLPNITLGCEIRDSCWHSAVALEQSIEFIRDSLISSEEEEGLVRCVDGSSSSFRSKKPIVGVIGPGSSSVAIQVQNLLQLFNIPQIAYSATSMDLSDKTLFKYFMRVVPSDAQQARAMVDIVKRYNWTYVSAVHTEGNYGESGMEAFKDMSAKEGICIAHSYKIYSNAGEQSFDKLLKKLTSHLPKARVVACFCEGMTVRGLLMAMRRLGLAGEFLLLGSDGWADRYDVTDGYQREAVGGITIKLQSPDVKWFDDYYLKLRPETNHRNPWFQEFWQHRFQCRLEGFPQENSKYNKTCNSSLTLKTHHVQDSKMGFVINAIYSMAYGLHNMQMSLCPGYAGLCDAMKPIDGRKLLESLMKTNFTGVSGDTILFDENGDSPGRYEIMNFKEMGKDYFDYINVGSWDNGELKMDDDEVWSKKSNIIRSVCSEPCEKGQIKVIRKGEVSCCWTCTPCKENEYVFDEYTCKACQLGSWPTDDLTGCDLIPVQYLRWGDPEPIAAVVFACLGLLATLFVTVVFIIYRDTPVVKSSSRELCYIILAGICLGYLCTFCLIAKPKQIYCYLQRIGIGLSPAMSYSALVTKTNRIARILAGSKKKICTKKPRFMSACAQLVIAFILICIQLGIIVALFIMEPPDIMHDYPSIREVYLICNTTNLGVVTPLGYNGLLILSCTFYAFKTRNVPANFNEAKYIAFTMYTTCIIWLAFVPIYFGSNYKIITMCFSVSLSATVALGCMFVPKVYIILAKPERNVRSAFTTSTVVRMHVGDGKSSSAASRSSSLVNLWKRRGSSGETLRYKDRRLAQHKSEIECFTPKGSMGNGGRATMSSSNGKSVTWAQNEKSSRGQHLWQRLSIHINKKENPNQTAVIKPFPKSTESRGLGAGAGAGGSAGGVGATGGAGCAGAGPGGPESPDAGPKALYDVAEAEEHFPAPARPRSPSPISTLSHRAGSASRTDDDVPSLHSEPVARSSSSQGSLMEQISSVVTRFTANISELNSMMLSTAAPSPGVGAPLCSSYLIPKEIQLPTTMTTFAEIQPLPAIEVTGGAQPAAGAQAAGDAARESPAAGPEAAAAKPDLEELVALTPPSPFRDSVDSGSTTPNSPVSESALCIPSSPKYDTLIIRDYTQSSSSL

The target in this assay is human mGluR5 receptor (Homo sapiens (Human), UniProt P41594). Briefly: Calcium influx assay based on fluorescence (mGluR5 PAM activity). Particulars: human mGluR5 receptor-overexpressed HEK293 cell line; L-glutamate EC20; Fluo-4, FLIPR. A digest of the protocol:
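HEK293 cells overexpressing human mGluR5, loaded 1 h with Fluo-4 at 37° C. Compounds (10 μM to 10 nM final, 0.1–0.2% DMSO) added with an EC20 concentration of L-glutamate, and Ca2+ response read by FLIPR at room temperature. Activity scaled as 0% for EC20 glutamate alone and 100% for glutamate maximum.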
In the case of `Fc1ccc(-c2cnc3nc(COc4ccccn4)cn3c2)c(C(F)(F)F)c1` [Example 113, 6-[4-fluoro-2-(trifluoromethyl)phenyl]-2-(2-pyridyloxymethyl)imidazo[1,2-a]pyrimidine], the EC50 was in the range of 100 to 500 nM. Turning to `Fc1ccc(OCc2cn3cc(-c4ccc(F)cc4)cnc3n2)cc1` [Example 53, 2-[(4-fluorophenoxy)methyl]-6-(4-fluorophenyl)imidazo[1,2-a]pyrimidine], the EC50 was in the range of 100 to 500 nM. For the compound `c1ccc(OCc2cn3cc(-c4ccccc4)cnc3n2)cc1` [Example 2, 2-phenoxymethyl-6-phenylimidazo[1,2-a]pyrimidine], the EC50 fell in the range of 100 to 500 nM. Regarding `COc1ccccc1-c1cnc2nc(COc3ccccc3)cn2c1` [Example 4, 6-(2-methoxyphenyl)-2-phenoxymethylimidazo[1,2-a]pyrimidine], the EC50 lay in the range of 100 to 500 nM. In the case of `Cc1ccc(F)cc1-c1cnc2nc(COc3ccc(F)cc3)cn2c1` [Example 61, 6-(5-fluoro-2-methyl-phenyl)-2-[(4-fluorophenoxy)methyl]imidazo[1,2-a]pyrimidine], the EC50 lay in the range of 500 to 1000 nM.

For `COc1cc(Cl)ccc1-c1cnc2nc(COc3ccccn3)cn2c1` [Example 111, 6-(4-chloro-2-methoxyphenyl)-2-(pyridin-2-yloxymethyl)imidazo[1,2-a]pyrimidine], the EC50 lay in the range of 100 to 500 nM. As for `COc1c(F)cccc1-c1cnc2nc(COc3cc(F)ccn3)cn2c1` [Example 121, 6-(3-fluoro-2-methoxy-phenyl)-2-[(4-fluoro-2-pyridyl)oxymethyl)imidazo[1,2-a]pyrimidine], the EC50 was 100 to 500 nM. In the case of `Fc1ccc(-c2cnc3nc(COc4ccccc4)cn3c2)c(Cl)c1` [Example 15, 6-(2-chloro-4-fluorophenyl)-2-phenoxymethylimidazo[1,2-a]pyrimidine] it was 100 to 500 nM; in that of `CSc1cc(F)ccc1-c1cnc2nc(COc3ccc(F)cc3)cn2c1` [Example 98, 6-(4-fluoro-2-methylsulfanyl-phenyl)-2-[(4-fluorophenoxy)methyl]imidazo[1,2-a]pyrimidine], 100 to 500 nM; in that of `OCc1cc(F)ccc1-c1cnc2nc(COc3cncc(F)c3)cn2c1` [Example 177, [5-fluoro-2-[2-[(5-fluoro-3-pyridyl)oxymethyl]imidazo[1,2-a]pyrimidin-6-yl]phenyl]methanol], 500 to 1000 nM. In the case of `Cc1ccc(F)cc1-c1cnc2nc(COc3ccccn3)cn2c1` [Example 108, 6-(5-fluoro-2-methylphenyl)-2-(pyridin-2-yloxymethyl)imidazo[1,2-a]pyrimidine] it was 500 to 1000 nM. As for `Cc1ccncc1-c1cnc2nc(COc3ccccc3)cn2c1` [Example 32, 6-(4-methylpyridin-3-yl)-2-phenoxymethylimidazo[1,2-a]pyrimidine], the EC50 lay in the range of 100 to 500 nM.

Consider `OCc1cc(F)ccc1-c1cnc2nc(COc3ccnc(F)c3)cn2c1` [Example 170, 6-(4-fluoro-2-hydroxymethylphenyl)-2-(2-fluoropyridin-4-yloxymethyl)imidazo[1,2-a]pyrimidine], for which the EC50 fell in the range of 100 to 500 nM. Take `Fc1ccccc1-c1cnc2nc(COc3ccccc3)cn2c1` [Example 1, 6-(2-fluorophenyl)-2-phenoxymethylimidazo[1,2-a]pyrimidine]: the EC50 is 100 to 500 nM.

Regarding `Cc1cc(-c2cnc3nc(COc4ccccc4)cn3c2)cnc1F` [Example 39, 6-(6-fluoro-5-methyl-3-pyridyl)-2-phenoxymethylimidazo[1,2-a]pyrimidine], the EC50 was 100 to 500 nM. For `OCc1cc(F)ccc1-c1cnc2nc(COc3ccc(F)cn3)cn2c1` [Example 139, [5-fluoro-2-[2-[(5-fluoro-2-pyridyl)oxymethyl]imidazo[1,2-a]pyrimidin-6-yl]phenyl]methanol], the EC50 was in the range of 500 to 1000 nM.

Consider `Oc1cc(F)ccc1-c1cnc2nc(COc3ccnc(F)c3)cn2c1` [Example 167, 6-(4-fluoro-2-hydroxyphenyl)-2-(2-fluoropyridin-4-yloxymethyl)imidazo[1,2-a]pyrimidine], for which the EC50 was 100 to 500 nM. Then `Cc1ccc(N)c(-c2cnc3nc(COc4ccc(F)cc4)cn3c2)c1` [Example 76, 2-[2-[(4-fluorophenoxy)methyl]imidazo[1,2-a]pyrimidin-6-yl]-4-methyl-aniline], with 100 to 500 nM; and `Cc1cc(F)ccc1-c1cnc2nc(COc3ccc(F)cn3)cn2c1` [Example 114, 6-(4-fluoro-2-methyl-phenyl)-2-[(5-fluoro-2-pyridyl)oxymethyl)imidazo[1,2-a]pyrimidine], with 100 to 500 nM. `COc1ccc(-c2cnc3nc(COc4ccccc4)cn3c2)cn1` [Example 30, 6-(6-methoxypyridin-3-yl)-2-phenoxymethylimidazo[1,2-a]pyrimidine]: the EC50 lay in the range of 500 to 1000 nM. Take `COCc1cc(F)ccc1-c1cnc2nc(COc3ccccn3)cn2c1` [Example 141, 6-[4-fluoro-2-(methoxymethyl)phenyl]-2-(2-pyridyloxymethyl)imidazo[1,2-a]pyrimidine]: the EC50 is 100 to 500 nM. `Nc1cc(F)ccc1-c1cnc2nc(COc3cccc(F)c3)cn2c1` [Example 101, 5-fluoro-2-[2-[(3-fluorophenoxy)methyl]imidazo[1,2-a]pyrimidin-6-yl]aniline]: the EC50 was in the range of 100 to 500 nM. As for `Cc1ccccc1-c1cnc2nc(COc3ccc(F)cn3)cn2c1` [Example 126, 2-[(5-fluoro-2-pyridyl)oxymethyl]-6-(o-tolyl)imidazo[1,2-a]pyrimidine], the EC50 lay in the range of 100 to 500 nM. With `Clc1cnccc1-c1cnc2nc(COc3ccccc3)cn2c1` [Example 36, 6-(3-chloropyridin-4-yl)-2-phenoxymethylimidazo[1,2-a]pyrimidine], the EC50 was 100 to 500 nM.

Turning to `Cc1ccncc1-c1cnc2nc(COc3cccc(F)c3)cn2c1` [Example 46, 6-(4-methylpyridin-3-yl)-2-(3-fluorophenoxymethyl)imidazo[1,2-a]pyrimidine], the EC50 fell in the range of 100 to 500 nM.

As to `Fc1cccc(OCc2cn3cc(-c4cccnc4F)cnc3n2)c1` [Example 82, 2-[(3-fluorophenoxy)methyl]-6-(2-fluoro-3-pyridyl)imidazo[1,2-a]pyrimidine], the EC50 was 100 to 500 nM. In the case of `Nc1cc(-c2cnc3nc(COc4ccc(F)cn4)cn3c2)ccc1F` [Example 133, 2-fluoro-5-[2-[(5-fluoro-2-pyridyl)oxymethyl]imidazo[1,2-a]pyrimidin-6-yl]aniline], the EC50 lay in the range of 500 to 1000 nM. In the case of `Nc1ccccc1-c1cnc2nc(COc3ccccc3)cn2c1` [Example 10, 6-(2-aminophenyl)-2-phenoxymethylimidazo[1,2-a]pyrimidine] it was 100 to 500 nM; in that of `Cc1cc(Cl)ccc1-c1cnc2nc(COc3ccccn3)cn2n1` [Example 190, 2-(4-chloro-2-methyl-phenyl)-6-(2-pyridyloxymethyl)imidazo[1,2-b][1,2,4]triazine], 100 to 500 nM; in that of `Nc1cc(F)ccc1-c1cnc2nc(COc3ccccc3)cn2c1` [Example 27, 6-(2-amino-4-fluorophenyl)-2-phenoxymethylimidazo[1,2-a]pyrimidine], 100 to 500 nM. `COc1cc(F)ccc1-c1cnc2nc(COc3cccnc3)cn2c1` [Example 147, 6-(4-fluoro-2-methoxyphenyl)-2-(pyridin-3-yloxymethyl)imidazo[1,2-a]pyrimidine]: the EC50 was 500 to 1000 nM.

As for `Nc1cccc(-c2cnc3nc(COc4ccccc4)cn3c2)c1` [Example 9, 6-(3-aminophenyl)-2-phenoxymethylimidazo[1,2-a]pyrimidine], the EC50 was 500 to 1000 nM.
